Experimental data as given in ChEMBL document CHEMBL5143612, “Antibacterial activity evaluation of vinyl sulfones against global predominant methicillin-resistant Staphylococcus aureus USA300” (Bioorg Med Chem Lett, 2022).
In brackets after ≈: the same amount, converted by molar mass. Activity calls are given as the source filed them. The rule behind the calls is not given here.

Key:
Staphylococcus aureus [1] = assay: Bactericidal activity against methicillin-susceptible Staphylococcus aureus ATCC 29213 assessed as inhibition of bacterial growth incubated for 18 to 20 hrs by CLSI based microdilution susceptibility analysis; assay type: functional; conditions: time 18-20 hrs
Staphylococcus aureus [2] = assay: Antibacterial activity against community-associated methicillin-resistant Staphylococcus aureus USA300 SF8300 assessed as inhibition of bacterial growth by measuring zone of inhibition at 30 ug incubated for 18 to 20 hrs by CLSI based disk diffusion analysis; assay type: functional; conditions: time 18-20 hrs, read-out: DIZ
Pseudomonas aeruginosa [3] = assay: Antibacterial activity against Pseudomonas aeruginosa assessed as inhibition of bacterial growth incubated for 18 to 20 hrs by CLSI based microdilution susceptibility analysis; assay type: functional; conditions: time 18-20 hrs
Pseudomonas aeruginosa [4] = assay: Antibacterial activity against Pseudomonas aeruginosa assessed as inhibition of bacterial growth by measuring zone of inhibition at 30 ug incubated for 18 to 20 hrs by CLSI based disk diffusion analysis; assay type: functional; conditions: time 18-20 hrs, read-out: DIZ
Staphylococcus aureus [5] = assay: Antibacterial activity against community-associated methicillin-resistant Staphylococcus aureus USA300 SF8300 assessed as inhibition of bacterial growth incubated for 18 to 20 hrs by CLSI based microdilution susceptibility analysis; assay type: functional; conditions: time 18-20 hrs
Staphylococcus aureus [6] = assay: Antibacterial activity against methicillin-susceptible Staphylococcus aureus ATCC 29213 assessed as inhibition of bacterial growth incubated for 18 to 20 hrs by CLSI based microdilution susceptibility analysis; assay type: functional; conditions: time 18-20 hrs
Staphylococcus aureus [7] = assay: Antibacterial activity against methicillin-susceptible Staphylococcus aureus ATCC 25923 assessed as inhibition of bacterial growth by measuring zone of inhibition at 30 ug incubated for 18 to 20 hrs by CLSI based disk diffusion analysis; assay type: functional; conditions: time 18-20 hrs, read-out: DIZ
Staphylococcus aureus [8] = assay: Inhibition of methicillin-susceptible Staphylococcus aureus ATCC 29213 bacterial cell adhesion to fibronectin at 0.1 mg/ml followed by compound addition on fibronectin precoated plate measured after 2 hrs by crystal violet dye based analysis; assay type: functional
Pseudomonas aeruginosa [9] = assay: Bactericidal activity against Pseudomonas aeruginosa assessed as inhibition of bacterial growth incubated for 18 to 20 hrs by CLSI based microdilution susceptibility analysis; assay type: functional; conditions: time 18-20 hrs
Staphylococcus aureus [10] = assay: Bactericidal activity against community-associated methicillin-resistant Staphylococcus aureus USA300 SF8300 assessed as inhibition of bacterial growth incubated for 18 to 20 hrs by CLSI based microdilution susceptibility analysis; assay type: functional; conditions: time 18-20 hrs
Albumin = Albumin (Homo sapiens, UniProt P02768); assay: Binding affinity to cysteine residue of human serum albumin assessed as conjugation of compound with protein at 1:1 compound to human serum albumin concentration incubated for 2 hr by LC-MS/MS analysis; assay type: cell-free
Sequence of Albumin (P02768 whole entry): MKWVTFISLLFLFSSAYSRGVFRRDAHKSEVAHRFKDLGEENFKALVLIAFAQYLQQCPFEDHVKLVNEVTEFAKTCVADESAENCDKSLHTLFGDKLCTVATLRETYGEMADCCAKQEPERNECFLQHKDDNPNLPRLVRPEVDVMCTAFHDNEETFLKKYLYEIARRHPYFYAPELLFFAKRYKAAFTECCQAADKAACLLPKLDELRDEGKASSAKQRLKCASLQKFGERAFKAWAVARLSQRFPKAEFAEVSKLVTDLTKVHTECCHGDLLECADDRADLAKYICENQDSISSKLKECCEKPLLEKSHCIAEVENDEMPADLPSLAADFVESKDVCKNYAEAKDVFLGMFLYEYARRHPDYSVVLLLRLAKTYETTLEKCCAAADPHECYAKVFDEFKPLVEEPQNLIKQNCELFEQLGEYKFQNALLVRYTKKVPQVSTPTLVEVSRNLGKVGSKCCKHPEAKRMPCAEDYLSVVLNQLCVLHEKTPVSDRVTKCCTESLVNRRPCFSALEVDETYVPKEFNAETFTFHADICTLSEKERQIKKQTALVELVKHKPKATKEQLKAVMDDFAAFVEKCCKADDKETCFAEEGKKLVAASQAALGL

Sortase A = biological target: T1, Sortase A (Staphylococcus aureus, UniProt Q9S446); assay: Inhibition of Staphylococcus aureus sortase A using Abz/Dnp fluorescent peptide as a substrate measured after 30 mins by fluorescent based analysis
T1 sequence (Q9S446 whole entry): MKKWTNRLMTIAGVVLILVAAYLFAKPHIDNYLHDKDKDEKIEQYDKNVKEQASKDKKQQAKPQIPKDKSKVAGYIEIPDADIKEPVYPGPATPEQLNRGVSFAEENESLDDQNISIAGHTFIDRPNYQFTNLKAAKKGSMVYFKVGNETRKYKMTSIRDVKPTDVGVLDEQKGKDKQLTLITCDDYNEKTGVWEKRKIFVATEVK

Compound | MBC (Staphylococcus aureus [1]) [µg/mL] | zone of inhibition at 30 µg/disc (Staphylococcus aureus [2]) [mm] | MIC (Pseudomonas aeruginosa [3]) [µg/mL] | zone of inhibition at 30 µg/disc (Pseudomonas aeruginosa [4]) [mm] | MIC (Staphylococcus aureus [5]) [µg/mL] | MIC (Staphylococcus aureus [6]) [µg/mL] | zone of inhibition at 30 µg/disc (Staphylococcus aureus [7]) [mm] | inhibition (Staphylococcus aureus [8]) | MBC (Pseudomonas aeruginosa [9]) [µg/mL] | MBC (Staphylococcus aureus [10]) [µg/mL] | Activity (Albumin) | IC50 (Sortase A) [µM]
N#C/C=C/S(=O)(=O)c1ccccc1 | 30 (≈ 155 µM) | 25.2 | 60 (≈ 311 µM) | 14.1 | 7.5 (≈ 38.8 µM) | 1.88 (≈ 9.7 µM) | 22.6 | Active | 60 (≈ 311 µM) | 60 (≈ 311 µM) |  | 
Cc1ccc(S(=O)(=O)/C=C/C(=O)OC(C)(C)C)cc1 | 120 (≈ 425 µM) | 16.7 |  | 6 | 30 (≈ 106 µM) | 7.5 (≈ 26.6 µM) | 14.9 |  |  | 60 (≈ 212 µM) |  | 
COc1ccc(S(=O)(=O)/C=C\C#N)cc1 | 60 (≈ 269 µM) | 24.7 | 120 (≈ 538 µM) | 14.2 | 15 (≈ 67.2 µM) | 3.75 (≈ 16.8 µM) | 24.5 | Active | 120 (≈ 538 µM) | 60 (≈ 269 µM) |  | 
Cc1ccc(S(=O)(=O)C/C=C\Oc2ccccc2)cc1 |  | 6 |  | 6 |  |  | 6 |  |  |  |  | 
COC(=O)/C(C)=C/S(=O)(=O)c1ccc(C)cc1 |  | 6 |  | 6 |  |  | 6 |  |  |  |  | 
COC(=O)/C=C/S(=O)(=O)c1ccc(C)cc1 | 120 (≈ 499 µM) | 18.7 | > 120 | 10.6 | 15 (≈ 62.4 µM) | 7.5 (≈ 31.2 µM) | 20.6 |  | > 120 | 120 (≈ 499 µM) |  | 
N#C/C=C/S(=O)(=O)c1ccc([N+](=O)[O-])cc1 | 60 (≈ 252 µM) | 6 | 120 (≈ 504 µM) | 13.1 |  | 30 (≈ 126 µM) | 21.1 | Active | 120 (≈ 504 µM) |  |  | 
Cc1ccc(S(=O)(=O)/C=C/COCc2ccccc2)cc1 | > 120 | 6 |  | 6 |  | > 120 | 8.3 |  |  |  |  | 
Cc1ccc(S(=O)(=O)/C=C/CCCBr)cc1 |  | 6 |  | 6 |  |  | 6 |  |  |  |  | 
Cc1ccc(S(=O)(=O)/C=C/C(N)=O)cc1 | 60 (≈ 266 µM) | 6 |  | 6 |  | 60 (≈ 266 µM) | 22 |  |  |  |  | 
Cc1ccc(S(=O)(=O)/C=C/Cc2ccccc2)cc1 |  | 6 |  | 6 |  |  | 6 |  |  |  |  | 
N#C/C=C/S(=O)(=O)c1ccc(Br)cc1 | 15 (≈ 55.1 µM) | 25.7 | 120 (≈ 441 µM) | 12.9 | 15 (≈ 55.1 µM) | 7.5 (≈ 27.6 µM) | 24.7 | Active | > 120 | 60 (≈ 220 µM) |  | 
CCCCOC(=O)/C=C/S(=O)(=O)c1ccc(C)cc1 | 120 (≈ 425 µM) | 15.1 |  | 6 | 60 (≈ 212 µM) | 7.5 (≈ 26.6 µM) | 13.9 |  |  | > 120 |  | 
N#C/C=C/S(=O)(=O)c1ccc(Cl)cc1 | 15 (≈ 65.9 µM) | 25.5 | 60 (≈ 264 µM) | 13.9 | 7.5 (≈ 32.9 µM) | 1.88 (≈ 8.24 µM) | 22.8 | Active | 120 (≈ 527 µM) | 60 (≈ 264 µM) |  | 
N#C/C=C\S(=O)(=O)c1ccccc1 | 30 (≈ 155 µM) | 6 | 60 (≈ 311 µM) | 14.1 |  | 15 (≈ 77.6 µM) | 22.3 | Active | 120 (≈ 621 µM) |  |  | 
COc1ccc(S(=O)(=O)/C=C/C#N)cc1 | 30 (≈ 134 µM) | 25.9 | > 120 | 13.3 | 3.75 (≈ 16.8 µM) | 1.88 (≈ 8.4 µM) | 26.9 | Active | > 120 | 30 (≈ 134 µM) |  | 
O=[N+]([O-])c1ccc(S(=O)(=O)/C=C/CCCBr)cc1 |  | 6 |  | 6 |  |  | 6 |  |  |  |  | 
C/C(C#N)=C\S(=O)(=O)c1ccc(C)cc1 |  | 11.3 |  | 6 | 30 (≈ 136 µM) |  | 6 |  |  | 120 (≈ 542 µM) |  | 
Cc1ccc(S(=O)(=O)/C=C/c2ccc(Cl)cc2)cc1 |  | 6 |  | 6 |  |  | 6 |  |  |  |  | 
C/C(=C\C#N)S(=O)(=O)c1ccc(C)cc1 | 60 (≈ 271 µM) | 6 |  | 6 |  | 60 (≈ 271 µM) | 16.2 |  |  |  |  | 
N#C/C=C\S(=O)(=O)c1ccc(Br)cc1 | 30 (≈ 110 µM) | 23.4 | 60 (≈ 220 µM) | 13.8 | 60 (≈ 220 µM) | 30 (≈ 110 µM) | 22.6 | Active | > 120 | 120 (≈ 441 µM) |  | 
N#C/C=C\S(=O)(=O)c1ccc(Cl)cc1 | 60 (≈ 264 µM) | 6 | 60 (≈ 264 µM) | 16.3 |  | 7.5 (≈ 32.9 µM) | 20 | Active | 60 (≈ 264 µM) |  |  | 
C/C(=C/C#N)S(=O)(=O)c1ccc(C)cc1 | 7.5 (≈ 33.9 µM) | 23.6 |  | 6 | 7.5 (≈ 33.9 µM) | 7.5 (≈ 33.9 µM) | 23.6 |  |  | 15 (≈ 67.8 µM) |  | 
O=S(=O)(/C=C/CCCBr)c1ccc(Br)cc1 |  | 6 |  | 6 |  |  | 6 |  |  |  |  | 
Cc1ccc(/C=C/S(=O)(=O)c2ccc(C)cc2)cc1 |  | 6 |  | 6 |  |  | 6 |  |  |  |  | 
CCS(=O)(=O)c1ccc(C)cc1 |  | 6 |  | 6 |  |  | 6 |  |  |  |  | 
Cc1ccc(S(=O)(=O)/C=C/C#N)cc1 | 15 (≈ 72.4 µM) | 27.7 | 120 (≈ 579 µM) | 12.9 | 7.5 (≈ 36.2 µM) | 1.88 (≈ 9.05 µM) | 28 | Active | > 120 | 60 (≈ 289 µM) | Active | 129
Cc1ccc(S(=O)(=O)/C=C/C(=O)O)cc1 | > 120 | 6 |  | 6 |  | > 120 | 9.94 |  |  |  |  | 
